The experiment concerns the target T1, CHK1 kinase (Homo sapiens, UniProt O14757).
T1 construct: The kinase domain is expressed in baculovirus and purified by the GST tag; GST; made in house
T1 sequence (O14757 9-265 limits assumed): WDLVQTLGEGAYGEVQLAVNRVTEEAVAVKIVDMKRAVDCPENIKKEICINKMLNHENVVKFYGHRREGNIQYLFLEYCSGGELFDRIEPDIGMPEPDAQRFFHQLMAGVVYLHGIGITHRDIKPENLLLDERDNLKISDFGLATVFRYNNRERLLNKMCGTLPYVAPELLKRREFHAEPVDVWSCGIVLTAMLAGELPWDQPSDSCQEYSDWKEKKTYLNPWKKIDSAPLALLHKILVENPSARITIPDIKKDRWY
As to the kind of experiment: Checkpoint Kinase 1 Assay (Scintillation Proximity Assay). Particulars: assay not given; IC50s are determined in the Checkpoint Kinase 1 assay. The format is biochemical. On the procedure: Checkpoint Kinase 1 Assay: This in vitro assay measures the inhibition of CHK1 kinase by compounds. The kinase domain is expressed in baculovirus and purified by the GST tag. Purified protein and biotinylated peptide substrate (Cdc25C) is then used in a 384 well automated Scintillation Proximity Assay (SPA). Specifically, peptide, enzyme and reaction buffer are mixed and aliquoted into a 384 well plate containing dilution series of compounds and controls. Cold and hot ATP are then added to initiate the reaction. After 2 hours, a SPA bead slurry, […] and EDTA are added to stop the reaction and capture the biotinylated peptide. Plates are then counted on a Topcount. Data is analyzed and IC50s determined for individual compounds.
(SPA uses beads or plates that emit light when radiolabelled molecules are held near them.)

Counter-ions that a name gives are not always drawn.

The record followed here is patent US7423061B2, “Substitute thiophenes and uses thereof” (AstraZeneca AB, priority 2003, dated 2008).

With `CCN(CC)CCOc1ccc(-c2cc(C(=O)NC3CCCNC3)c(NC(N)=O)s2)cc1` (stereo not shown) [Example 2, 2-[(aminocarbonyl)amino]-5-{4-[2-(diethylamino)ethoxy]phenyl}-N-piperidin-3-ylthiophene-3-carboxamide trifluoroacetate], the midpoint of inhibition, the IC50, lay at 0.01 µM.
